Test results: paper PMC9317670, “Temporal and Wash-Out Studies Identify Medicines for Malaria Venture Pathogen Box Compounds with Fast-Acting Activity against Both Trypanosoma cruzi and Trypanosoma brucei” (Microorganisms, 2022)
Read-outs that look alike come from different tables or passages of the source.

How the values were obtained:
[1] = system: T. cruzi Tulahuen strain parasites in 3T3 host cells; test: T. cruzi 48 h image-based assay; format: cell-based, Trypanosoma cruzi
[2] = system: T. cruzi Tulahuen strain parasites in 3T3 host cells; set-up: method as in PMID 28674055; conditions: liquid stocks; ref [16]; read-out: IC50 T. cruzi in the previous studies; cited from earlier work
[3] = system: T.b. brucei; set-up: method as in PMID 26258172; conditions: ref [53]; read-out: IC50 T.b. brucei, previously reported; cited from earlier work
[4] = system: T. cruzi; set-up: method as in PMID 25583723; conditions: 96 h; ref [54]; read-out: IC50 T. cruzi following 96 h incubation; cited from earlier work
[5] = system: T.b. brucei bloodstream 427 strain parasites; test: T.b. brucei 72 h REDOX-based (resazurin) viability assay; format: cell-based, Trypanosoma brucei brucei; conditions: for SI (T.b. brucei) HEK: selectivity index in relation to HEK293 cells; for SI (T.b. brucei) (HEP): selectivity index in relation to HEPG2 cells
[6] = system: HEK293 cells; test: HEK293 cytotoxicity assay; format: cell-based, human; conditions: HEK293, 72 h; NA = not active; highest dose 79 µM unless given
[7] = system: HEPG2 cells; test: HEPG2 cytotoxicity assay; format: cell-based, human; conditions: HEPG2, 72 h, NA = not active, highest dose 79 µM unless given
[8] = system: T. cruzi; test: T. cruzi temporal image-based assay, 24 h exposure; format: cell-based, Trypanosoma cruzi; conditions: for IC50: NA = not active at given concentration, read-out: IC50 24 h T. cruzi
[9] = system: T. cruzi; test: T. cruzi compound wash off assay (48 h with compound, wash off, 72 h without); format: cell-based, Trypanosoma cruzi; conditions: T. cruzi; for IC50 / Emax: 48 h incubation, wash off, further 72 h; for IC50: read-out: IC50 Wash Off; for Fold Change of IC50, wash off vs 48 h: IC50 from 48 h incubation to IC50 following wash off and further 72 h
[10] = system: T.b. brucei; test: T.b. brucei temporal viability (time-kill) assay, 24 h, PrestoBlue; format: cell-based, Trypanosoma brucei brucei; conditions: for IC50: read-out: IC50 24 h T.b. brucei; for Emax: read-out: Emax 24 h T.b. brucei (converted)
Method: Time-kill assays was undertaken as previously described, using the REDOX reagent PrestoBlue® [24]. […] Control compounds were added at the same concentrations at outlined for the resazurin-based assays.

[11] = system: T.b. brucei; test: T.b. brucei temporal viability (time-kill) assay, 48 h, PrestoBlue; format: cell-based, Trypanosoma brucei brucei; conditions: for IC50: read-out: IC50 48 h T.b. brucei; for Emax: read-out: Emax 48 h T.b. brucei (converted)
[12] = system: T. cruzi and T.b. brucei; test: Speed of action and cidality classification from temporal and wash off assays; format: cell-based, Trypanosoma cruzi, Trypanosoma brucei brucei; conditions: for Speed of Action (FA/SA): TC = T. cruzi, TBB = T.b. brucei; for Speed of Action (Table 5): prioritised compounds, Fast/Slow
[13] = system: bovine peripheral blood mononuclear cells (PBMCs); set-up: method as in PMID 30771616; conditions: 24 h incubation; ref [55]; read-out: IC50 against bovine PBMCs; cited from earlier work
[14] = system: T.b. rhodesiense STIB900; test: T.b. rhodesiense STIB900 assay, 72 h; format: cell-based; conditions: Trypanosoma brucei, read-out: IC50 T. bR (T.b. rhodesiense)
[15] = system: T.b. gambiense STIB930; test: T.b. gambiense STIB930 assay, 72 h; format: cell-based; conditions: Trypanosoma brucei, unit inferred, read-out: IC50 T. Bg STIB930 (T.b. gambiense)
[16] = target: T. cruzi recombinant CYP51 (TcCYP51) (Trypanosoma cruzi, UniProt Q7Z1V1); test: biochemical
Chain of T. cruzi recombinant CYP51 (TcCYP51) (Q7Z1V1 whole entry): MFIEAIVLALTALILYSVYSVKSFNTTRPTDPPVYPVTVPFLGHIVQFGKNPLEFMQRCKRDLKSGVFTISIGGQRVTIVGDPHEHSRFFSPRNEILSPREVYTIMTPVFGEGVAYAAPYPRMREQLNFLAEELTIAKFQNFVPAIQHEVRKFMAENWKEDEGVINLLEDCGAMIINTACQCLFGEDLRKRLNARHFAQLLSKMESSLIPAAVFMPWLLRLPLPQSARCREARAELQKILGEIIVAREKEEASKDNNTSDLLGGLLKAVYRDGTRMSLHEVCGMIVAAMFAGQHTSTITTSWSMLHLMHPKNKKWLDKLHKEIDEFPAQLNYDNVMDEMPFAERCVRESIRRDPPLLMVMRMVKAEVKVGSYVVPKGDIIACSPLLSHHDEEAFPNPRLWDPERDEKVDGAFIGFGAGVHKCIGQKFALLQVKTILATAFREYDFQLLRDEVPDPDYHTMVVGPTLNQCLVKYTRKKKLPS
Method: The inhibitory properties of compounds against T. cruzi recombinant CYP51 (TcCYP51) was determined using an in vitro assay as previously described [33, 41]. Compounds which inhibited T. cruzi in an image-based assay were tested against TcCYP51 in log concentrations (100, 33, 10, 3.3, 1.0, 0.33, 0.1 and 0 µM), with one replicate per dose, as previously described [41]. The control compound posaconazole was incubated at the same concentrations as the test compounds, over two replicates.
Of the fast-acting compounds, if there was more than one compound with activity against T. cruzi, one representative compound from each chemical class was selected. […] Slow-acting compounds were also tested for activity against TcCYP51. The criteria defining a compound with TcCYP51 activity required that the IC50 value was within a log difference to posaconazole, as previously reported [33].

[17] = in vivo, species not stated; ref [10]; cited from earlier work
[18] = system: CYP1A2; set-up: method as in earlier work; conditions: Pathogen Box in vitro DMPK data; ref [10]; cited from earlier work
[19] = control drugs; ref DrugBank; cited from earlier work
[20] = ref [8]; cited from earlier work
[21] = system: T. cruzi; set-up: method as in PMID 29016289; conditions: treated for 40 days; ref [4]; cited from earlier work
[22] = Trypanosoma cruzi, TULAHUEN, 48 h; read-out: Emax % (T. cruzi) (converted)
[23] = Trypanosoma cruzi, TULAHUEN, 48 h; read-out: IC50 (T. cruzi)
[24] = selectivity index in relation to 3T3 host cells; highest dose 3T3 73 µM
[25] = selectivity index in relation to HEK293 cells
[26] = selectivity index in relation to HEPG2 cells

CC(C)=CCC/C(C)=C/CNCCNC1C2CC3CC(C2)CC1C3 (stereo not drawn) [MMV687273]
IC50 ([1]; Trypanosoma cruzi, TULAHUEN, 48 h, read-out: IC50 (T. cruzi)): 13000 nM
IC50 [2]: 5.4 µM
IC50 [3]: 5 µM
IC50 [4]: 500 to 1000 nM

O=C(Nc1ccc(F)c(-c2nc3ncc(-c4ccccc4)cc3[nH]2)c1)N1CCCC1 [MMV 688372]
Emax % (T.b. brucei) ([5]; 72 h): 99%
IC50 ([5]; 72 h): 14 ± 2.4 nM
Emax % (T. cruzi) ([1]; 48 h): 99%
Emax % (T. cruzi) ([1]; 48 h; listed as MMV688372): > 95%
IC50 ([1]; 48 h; read-out: IC50 (T. cruzi)): 130 ± 9.7 nM
IC50 [6]: 1800 ± 50.2 nM
IC50 ([7]; read-out: IC50 (HEP) (converted)): 3.6 µM
Emax 24 h T. cruzi [8]: 75%
IC50 [8]: 1600 ± 64 nM
IC50 [9]: 130 ± 2.9 nM
Emax 24 h T.b. brucei [10]: 83%
IC50 [10]: 34 ± 2 nM
Emax 48 h T.b. brucei [11]: 100%
IC50 [11]: 13 ± 0.32 nM
Speed of Action (FA/SA) [12]: SA (TC)
Speed of Action (Table 5) [12]: Slow
IC50 [13]: 5.3 µM

Cc1ccc(S(=O)(=O)Nc2ccc(CN3CCN(C(=O)c4cccc(C#N)c4)CC3)cc2)cc1 [MMV 689028]
Emax ([5]; Trypanosoma brucei, 72 h): 99%
IC50 ([5]; Trypanosoma brucei, 72 h): 120 ± 30 nM
SI (T.b. brucei) HEK [5]: >658 (>658)
SI (T.b. brucei) (HEP) [5]: >658 (>658)
Emax [1, 22]: 100%
IC50 [1, 23]: 700 ± 130 nM
SI (T. cruzi) 3T3 [1, 24]: >104
SI (T. cruzi) HEK [1, 25]: >113 (>113)
SI (T. cruzi) (HEP) [1, 26]: >113 (>113)
IC50 HEK [6]: no activity
IC50 (HEP) [7]: no activity
Emax ([8]; Trypanosoma cruzi): 91%
IC50 ([8]; Trypanosoma cruzi): 1100 ± 430 nM
Fold Change of IC50, wash off vs 48 h [9]: 0.86 fold
Emax ([9]; Trypanosoma cruzi): 99%
IC50 ([9]; Trypanosoma cruzi): 390 ± 20 nM
Emax ([10]; Trypanosoma brucei): 78%
IC50 ([10]; Trypanosoma brucei): 720 ± 380 nM
Emax ([11]; Trypanosoma brucei): 99%
IC50 ([11]; Trypanosoma brucei): 110 ± 3.2 nM
IC50 ([14]; STIB900, 72 h, unit inferred): 280 ± 11 nM
IC50 [15]: 48 ± 1.1 nM
Inhibition of TcCYP51 (in words) ([16]; criterion: IC50 within a log difference to posaconazole): nor exhibited TcCYP51 activity
Speed of Action (FA/SA) [12]: FA (Fast-acting (FA) = IC50 value can be determined following 24 h incubation, <10-fold difference in the IC50 value from 24 to 72 h)
Speed of Action (Table 5) [12]: Fast
Half-life [17]: 6.8 h
CYP1A2 induction [18]: induced CYP1A2 activity

COc1ccc(S(=O)(=O)Nc2ccc(CN3CCN(C(=O)c4cccc(C#N)c4)CC3)cc2)cc1 [MMV 689029]
Emax ([5]; Trypanosoma brucei, 72 h): 99%
IC50 ([5]; Trypanosoma brucei, 72 h): 420 ± 53 nM
SI (T.b. brucei) HEK [5]: >188 (>188)
SI (T.b. brucei) (HEP) [5]: >188 (>188)
Emax [1, 22]: 100%
IC50 [1, 23]: 1200 ± 67 nM
SI (T. cruzi) 3T3 [1, 24]: >61
SI (T. cruzi) HEK [1, 25]: >66 (>66)
SI (T. cruzi) (HEP) [1, 26]: >66 (>66)
Emax ([8]; Trypanosoma cruzi): 90%
IC50 ([8]; Trypanosoma cruzi): 3700 ± 260 nM
Fold Change of IC50, wash off vs 48 h [9]: 0.73 fold
Emax ([9]; Trypanosoma cruzi): 98%
IC50 ([9]; Trypanosoma cruzi): 880 ± 56 nM
Emax ([10]; Trypanosoma brucei): 89%
IC50 ([10]; Trypanosoma brucei): 980 ± 340 nM
Emax ([11]; Trypanosoma brucei): 100%
IC50 ([11]; Trypanosoma brucei): 400 ± 23 nM
IC50 ([14]; STIB900, 72 h, unit inferred): 630 ± 110 nM
IC50 [15]: 400 ± 120 nM
IC50 ([16]; top concentration 100 µM): > 100 µM
Speed of Action (FA/SA) [12]: FA (Fast-acting (FA) = IC50 value can be determined following 24 h incubation, <10-fold difference in the IC50 value from 24 to 72 h)
Speed of Action (Table 5) [12]: Fast
Half-life [17]: 2.4 h
CYP1A2 induction [18]: induced CYP1A2 activity

Nc1nc(N)nc(Nc2ccc([As]3SCC(CO)S3)cc2)n1 (stereo not drawn) [Melarsoprol, reference compound]
IC50 ([14]; 72 h): 15 ± 4 nM
LogP [19]: 1.3
Fatality among patients in which encephalopathy develops [20]: 50%
Post-treatment reactive encephalopathy, share of all treated cases [20]: 5–10%

CC1(C)OB(O)c2cc(NC(=O)c3ccc(F)cc3C(F)(F)F)ccc21 [SCYX-7158]
Cure of mice infected with T. cruzi [21]: 100%
